Experimental data: US10921325B2, “Composition for anticancer adjuvant comprising RIP3 expression promoter as active ingredient, method for screening anticancer adjuvant which promotes RIP3 expression and enhances sensitivity of anticancer agent, and method for monitoring sensitivity of anticancer agent” (AJOU UNIVERSITY INDUSTRY-ACADEMIC COOPERATION FOUNDATION, priority 2015, dated 2021)

Experiments:
[1] = test system: RIP3 expression in non-target and shRIP3 cancer cell lines; test: RIP3 expression in non-target and shRIP3 cell lines treated with 5-AD (Western blotting); type: cell-based, human; details: treated twice with 5-AD for 4 days
Procedure: A MISSION short-hairpin RNA (shRNA) plasmid that targets the coding region or 3′ UTR of hRIP3 mRNA (NM_006871) or a non-target control sequence (NM-027088) were obtained from Sigma-Aldrich. A Lentivirus plasmid was transfected into 293T cells (System Biosciences, LV900A-1) using Lipofectamine 2000 (Invitrogen, 11668019). Pseudoviral particles were collected at 2 days after transfection of the Lentivirus plasmid and infected into various cancer cells in the presence of polybrene (10 μg/mL). At 2 days after infection, infected cells were selected with puromycin, and RIP3 knockdown was confirmed by immunoblotting. Cells without expression endogenous RIP3 were afterwards treated with 5-AD for 4 days and analyzed by immunoblotting.
Cells were lysed in M2 buffer.
(§1) Since a demethylating agent (5-AD or 5-AZA) is not a drug specific for a particular protein, it may cause expression of various proteins in addition to RIP3. […] After whether RIP3 was expressed was determined, a cell viability assay was performed.

[2] = test system: RIP3 expression in RIP3-silenced cancer cell lines; test: RIP3 expression in RIP3-silenced cancer cell lines treated with demethylating agent (Western blotting)
Procedure: Cells were lysed in M2 buffer. Equal amounts of cell extracts were analyzed by SDS-PAGE and immunoblotting, and visualized by enhanced chemiluminescence (ECL, Amersham). A variety of RIP3-silenced cancer cell lines (including liver cancer, cervical cancer, prostate cancer, brain cancer, ovarian cancer, skin cancer, lung cancer, breast cancer, blood cancer, colorectal cancer, and bladder cancer) were grown to a confluence of 10-20%, and then treated twice with 5-AD for 4 days, after which RIP3 expression patterns in the cell lines were analyzed by a Western blotting technique.

[3] = test system: RIP3 expression in MDA-MB231 tumor tissue; test: RIP3 expression in isolated xenograft tumor tissue (RT-PCR, IHC); type: in vivo, BALB/c nude mice; details: group treated with 5-AD
Procedure: Immunohistochemistry was performed using the UltraVision LP Detection System TL-060-HD (Thermo Scientific, Bioanalytica) according to the manufactures instructions. Thin paraffin sections (4.5 μm) were deparaffinized in xylene and rehydrated in a graded series of ethanol-aqueous solutions. Antigen retrieval was done by heating the slides for 15 min in a microwave oven in 10 mM citrate buffer (pH 6.0). Endogenous peroxidase activity was blocked by incubation in 3% hydrogen peroxide in TBS for 10 min, and then the sections were incubated overnight at 4° C. in 1:300 dilutions of anti-RIP3 antibody. Chromogen was developed for 5 min with 3,3′-diaminobenzidine (TL-015-HD, Them© Scientific, Bioanalytica, Greece) solution and counterstained with Meyer's hematoxylin. Immunohistochemical staining was evaluated based on the proportion of stained cells and immunostaining intensity. H-score used in the present invention was obtained by multiplying the proportion of stained cells (i) and staining intensity graded 0 (negative), 1 (weak), 2 (moderate), or 3 (strong). H-score ranged from 0 to 300. Staining was carried out for tumor and normal tissues for each sample for the same time. Staining was interpreted by an experienced pathologist blinded to the clinical data.
In addition, RNA was extracted from the isolated tumor tissue and subjected to RT-PCR. […]

[4] = test system: MDA-MB231 breast cancer cell line tumors; test: MDA-MB231 mouse xenograft model, combined treatment with 5-AD and Doxorubicin; type: in vivo, BALB/c nude mice
Procedure: In order to verify the sensitization effect induced by RIP3 expression in experimental animal models, the MDA-MB231 breast cancer cell line that expresses no RIP3 was injected into BALB/c nude mice to form tumors. Next, the mice were injected with 5-AD for 1 week, and then injected with Doxorubicin for 33 days, and a change in the volume of the tumor tissue was measured. […] In addition, the tumor tissue was isolated after the last drug treatment, and the mass thereof was measured. […] The tumor tissue subjected to combined treatment with 5-AD and Doxorubicin was prepared into a paraffin block which was then visualized by H&E staining, p-H2AX antibody staining, and TUNEL staining.

[5] = test system: non-target cell line and shRIP3 cell line; test: Cell viability (MTT) of non-target and shRIP3 cell lines after combined treatment with demethylating agent and anticancer drug; type: cell-based, human
Procedure: A MISSION short-hairpin RNA (shRNA) plasmid that targets the coding region or 3′ UTR of hRIP3 mRNA (NM_006871) or a non-target control sequence (NM-027088) were obtained from Sigma-Aldrich. A Lentivirus plasmid was transfected into 293T cells (System Biosciences, LV900A-1) using Lipofectamine 2000 (Invitrogen, 11668019). Pseudoviral particles were collected at 2 days after transfection of the Lentivirus plasmid and infected into various cancer cells in the presence of polybrene (10 μg/mL).
(§2) Cell viability was determined using tetrazolium dye colorimetric test (MTT assay) at 570 nm.
as §1

[6] = test system: HeLa, MDA-MB231 and DLD-1 cancer cell lines; test: Sensitization to cancer cell death by combined treatment with demethylating agent and anticancer drug; type: cell-based
Procedure: as §2
The same number of HeLa, MDA-MB231 and DLD-1 cancer cell lines not treated with a drug were also grown, and then treated with the same concentration of an anticancer drug. The effect of the demethylating agent on sensitization to cell death was analyzed.

[7] = test system: RIP3 expression in HeLa cervical cell line and DLD-1 colorectal cancer cell line; test: RIP3 expression at mRNA or protein level in HeLa and DLD-1 cells treated with demethylating agent; type: cell-based; details: HeLa and DLD-1 cell lines which expressed no RIP3
T47D cells = test: Viability (MTT) of RIP3-silenced T47D cells treated with anticancer drug; type: cell-based, human; details: 48 hours; for anticancer drug resistance (MTT assay): T47D RIP3-knocked down test group, versus control group; for cell death (MTT assay): T47D control group
Procedure: The T47D cell line which is a breast cancer cell line expressing RIP3 was used to identify the role of RIP3 in various kinds of cancel. First, the shRIP3 T47D cell line was prepared in the same manner as described in Example 7.
In order to examine whether RIP3 increases anticancer drug sensitivity in T47D breast cancer cells, an MTT assay was performed. A control group and a RIP3-knocked down test group were incubated with doxorubicin, etoposide and taxol at the concentrations shown in FIG. 15 (right) for 48 hours.

HT-29 cells = test: Viability (MTT) of RIP3-silenced HT-29 cells treated with anticancer drug; type: cell-based, human; details: 48 hours
Procedure: In order to identify the role of RIP3 in anticancer drug sensitivity, the HT-29 cell line which is a representative cancer cell line expressing RIP3 was used. To identity the function of RIP3, RIP3 expression was inhibited using the shRNA system and analyzed by a Western blotting technique.
In the present invention, in order to examine whether the RIP3 gene is associated with anticancer drug sensitivity, HT-29 cells transfected with RIP3 shRNA were treated with varying concentrations of doxorubicin and etoposide, and then the cell viability of the cancer cells was measured. Particularly, HT-29 cells transfected with RIP3 shRNA were treated with 2.5 μM and 5 μM of doxorubicin and 50 μM and 100 μM of etoposide, and then incubated for 48 hours. After the medium was replaced with a fresh medium containing 0.1 mg of MTT (3-([4,5-dimethylthiazol-2-yl]-2,5-diphenyltetrazolium bromide), the cells were further incubated for 2 hours. Colorimetric analysis was performed on a precipitate obtained by reducing a tetrazolium salt, in which viable cells is dissolved, into a purple formazan crystal. Next, the medium was removed, and the produced formazan crystal was dissolved in 500 μl of DMSO, and the absorbance was measured using an ELISA reader at 570 nm. Cell viability was expressed as a percentage relative to the control taken as 100% viability.

[8] = non-target cell line, anticancer drug combined with demethylating agent (5-AD)
[9] = anticancer drug in combined treatment with the demethylating agent (5-AD or 5-AZA)
[10] = HT-29 control group, doxorubicin 2.5 and 5 μM, etoposide 50 and 100 μM
[11] = HT-29 with RIP3 knocked down with shRNA, versus control group

In the case of `Nc1ncn([C@H]2C[C@H](O)[C@@H](CO)O2)c(=O)n1` [5-AD, 5-aza-2′-deoxycytidine], the RIP3 expression ([1]; non-target cell line) is reported as “RIP3 expression was induced”, the RIP3 expression ([1]; shRIP3 cell line, Western blotting) is reported as “RIP3 was not expressed” and the RIP3 expression ([2]; cancer cell lines that expressed no RIP3, 5-AD 2 uM, treated twice for 4 days, Western blotting) is reported as “RIP3 expression was induced”. The “RIP3 expression (RT-PCR)” value ([3]; RNA from isolated tumor tissue) was “increased”, the “RIP3 expression (immunohistochemistry)” value ([3]; paraffin block of isolated tumor tissue) was “RIP3 expression was increased” and the “volume of the tumor tissue” value ([4]; 5-AD for 1 week then Doxorubicin for 33 days, combined treatment compared to Doxorubicin alone) was “significantly reduced”. The “H&E staining, p-H2AX antibody staining and TUNEL staining of tumor tissue” value ([4]; combined treatment with 5-AD and Doxorubicin) was “the death of the cancer cells occurred by the combined treatment”, the “mass of tumor tissue” value ([4]; tumor isolated after the last drug treatment, combined treatment with Doxorubicin and 5-AD) was “significantly reduced” and the “sensitization to cell death” value ([5]; shRIP3 cell line that expresses no RIP3, 5-AD combined with anticancer drug) was “the sensitization effect was inhibited”. The “sensitization to cell death” value ([6]; cervical, breast, colorectal and bladder cancer cell lines treated with the anticancer drug after RIP3 induction by 5-AD) was “sensitized to cell death”.
With `Nc1ncn([C@@H]2O[C@H](CO)[C@@H](O)[C@H]2O)c(=O)n1` [5-AZA, 5-azacytidine] the RIP3 expression ([2]; cancer cell lines of Example 3, treated twice for 4 days) was “induced RIP3 expression” and the RIP3 expression [7] was “RIP3 expression was induced”.
`O=c1[nH]cc(F)c(=O)[nH]1` [5-FU] was tested, and the “sensitization to cell death” value [5, 8] was “showed the effect of sensitizing the cancer cell line to cell line” and the “sensitization to cell death” value [6, 9] was “showed the effect of sensitizing the cancer cell lines to cell death”.
For `CC[C@@]1(O)C(=O)OCc2c1cc1n(c2=O)Cc2cc3ccccc3nc2-1` [CPT], the “sensitization to cell death” value [5, 8] was “showed the effect of sensitizing the cancer cell line to cell line” and the “sensitization to cell death” value [6, 9] was “showed the effect of sensitizing the cancer cell lines to cell death”.
With `N.N.[Cl][Pt][Cl]` [Cisplatin, cisplatin] the “sensitization to cell death” value [5, 8] was “showed the effect of sensitizing the cancer cell line to cell line” and the “sensitization to cell death” value [6, 9] was “showed the effect of sensitizing the cancer cell lines to cell death”.
For `COc1cccc2c1C(=O)c1c(O)c3c(c(O)c1C2=O)C[C@@](O)(C(=O)CO)C[C@@H]3O[C@H]1C[C@H](N)[C@H](O)[C@H](C)O1` [Doxorubicin, doxorubicin], the “anticancer drug resistance (MTT assay)” value (T47D cells) was “significantly increased compared to that of the control group”, the “cell death (MTT assay)” value (T47D cells) was “killed depending on the concentration” and the “sensitization to cell death” value [5, 8] was “showed the effect of sensitizing the cancer cell line to cell line”. For the same compound, the “sensitization to cell death” value [6, 9] was “showed the effect of sensitizing the cancer cell lines to cell death”, the cell viability (HT-29 cells; [10]) was “the cell viability decreased depending on the concentration” and the cell viability (HT-29 cells; [11]) was “the cell viability significantly increased compared to that of the control group”.
For `COc1cc([C@@H]2c3cc4c(cc3[C@@H](O[C@@H]3O[C@@H]5CO[C@@H](C)O[C@H]5[C@H](O)[C@H]3O)[C@H]3COC(=O)[C@H]23)OCO4)cc(OC)c1O` [Etoposide, etoposide], the “anticancer drug resistance (MTT assay)” value (T47D cells) was “significantly increased compared to that of the control group”, the “cell death (MTT assay)” value (T47D cells) was “killed depending on the concentration” and the “sensitization to cell death” value [5, 8] was “showed the effect of sensitizing the cancer cell line to cell line”. For the same compound, the “sensitization to cell death” value [6, 9] was “showed the effect of sensitizing the cancer cell lines to cell death”, the cell viability (HT-29 cells; [10]) was “the cell viability decreased depending on the concentration” and the cell viability (HT-29 cells; [11]) was “the cell viability significantly increased compared to that of the control group”.
For `CC(=O)O[C@H]1C(=O)[C@@]2(C)[C@H]([C@H](OC(=O)c3ccccc3)[C@]3(O)C[C@H](OC(=O)[C@H](O)[C@@H](NC(=O)c4ccccc4)c4ccccc4)C(C)=C1C3(C)C)[C@]1(OC(C)=O)CO[C@@H]1C[C@@H]2O` [Paclitaxel, paclitaxel], the “anticancer drug resistance (MTT assay)” value (T47D cells) was “significantly increased compared to that of the control group”, the “cell death (MTT assay)” value (T47D cells) was “killed depending on the concentration” and the “sensitization to cell death” value [6, 9] was “showed the effect of sensitizing the cancer cell lines to cell death”.
With `O=C(O)C(Cc1c[nH]c2ccccc12)N1C(=O)c2ccccc2C1=O` (stereo not shown) [RG108] the RIP3 expression [7] was “RIP3 expression was induced”.
